Experimental data reported in publication PMC10303920, “Competition between skin antimicrobial peptides and commensal bacteria in type 2 inflammation enables survival of S. aureus” (Cell reports, 2023).

What was measured:
ShA9-WT and ShA9-ΔLanti = experiment: Growth inhibition of ShA9-WT and ShA9-ΔLanti by human and murine AMPs (OD600); type: cell-based, Staphylococcus hominis; conditions: 90% RPMI/10% TSB, 30°C, 24 h, mean of duplicate technical replicates, Figure 4E
Experimental: Staphylococcus strains collected from normal skin from healthy subjects or lesional skin from AD patients were cultured in TSB overnight. Bacteria were washed with PBS and resuspended to 90% RPMI media and 10% TSB. Bacteria (1 × 10^5 CFU/mL) were incu bated with or without human AMPs (LL-37, hBD-2, hBD-3) or mouse cathelin-related AMP (CRAMP) in 90% RPMI media and 10% TSB (100 μL) in each well of a 96-well plate at 30°C for 24 h. Bacterial growth was assessed by measuring OD600. Minimal inhibitory concentration was defined as the lowest concentration which prevent visible bacterial growth (<5% of OD600 value of the con trol well).

[1] = system: CoNS-AM+ strains of S. epidermidis or S. hominis; experiment: Bacterial survival on pigskin, antibiotic-producing CoNS; type: cell-based; conditions: LL-37 2.5 nmol on 2.5 × 2.5 cm pigskin sheet, 1 × 10^6 CFU, 30°C, 24 h; Figure 4F
Experimental: (§1) Fresh-frozen pigskin sheets were obtained from Loretta Tomlin Animal Technologies (Livermore, CA) and sanitized by surgical brush with 3% chloroxylenol. The skin sheet was cut into 2.5 cm × 2.5 cm and rinsed with sterile PBS more than 20 times to remove chloroxylenol residue. Synthetic LL-37 (2.5nanomol/50μL H2O) or equal volume of vehicle was applied to the surface of sanitized pig skin. Antibiotic-producing or non-antibiotic-producing strain of CoNS (1 × 10^6 CFU/10μL PBS) was applied on the pigskin. Pigskin sheet was placed on a 6-well plate and incubated at 30°C for 24 h. The entire skin sheet was rubbed 50 times with nylon foam swab (Puritan) pre-moisturized with PBS to collect bacteria on the skin surface. Swab sample was suspended in 1mL of 85% TSB/15% glycerol and frozen until analysis.

[2] = system: CoNS-AM− strains of S. epidermidis or S. hominis; experiment: Bacterial survival on pigskin, non-antibiotic-producing CoNS; type: cell-based; conditions: LL-37 2.5 nmol on 2.5 × 2.5 cm pigskin sheet, 1 × 10^6 CFU, 30°C, 24 h; Figure 4F
Experimental: as §1

[3] = system: CoNS with antimicrobial activity within the microbial community of human skin swabs; experiment: Effect of low dose LL-37 on mixed bacterial communities from healthy human forearm skin in vitro; type: cell-based, coagulase-negative Staphylococcus; conditions: skin swabs from forearms of 5 healthy subjects, media with a low dose of LL-37, 4 h; Figure 4H
Experimental: Finally, the capacity of AMPs to shape the composition of the skin CoNS community was evaluated by examining the effects of LL-37 on survival of mixed communities of bacteria obtained from human skin (Figure 4G). Skin swab samples were obtained from the forearms of 5 healthy subjects (Table S4), and these mixed bacterial samples were incubated in media without or with a low dose of LL-37 for 4 h.
Individual isolated colonies of CoNS from human skin were grown on mannitol-salt agar with egg yolk (pink color without egg yolk reaction), randomly picked and transferred to individual wells containing TSB (400μL) in a 96-well cluster tube. Each plate also contained wells with a non-antimicrobial strain of S. epidermidis (S. epidermidis 1457) as a negative control, a potent antimicrobial strain of Staphylococcus hominis (A9 strain) as positive control, and blank wells without bacteria. CoNS were cultured at 37°C overnight with shaking. Growth was evaluated by OD600. Bacteria were removed by centrifugation followed by sterile filtration with a 0.22μm membrane. Sterile conditioned media were mixed with fresh TSB at 1:1. The antimicrobial activity released from each CoNS clone was evaluated by culturing 1 × 10^4 CFU of S. aureus (ATCC35556) in 200μL of diluted conditioned media at 30°C for 24 h. […] To determine frequency of antimicrobial CoNS, up to 48 CoNS vvvcolonies were analyzed.

ShA9-ΔLanti [4] = experiment: Synergistic antimicrobial assay between LL-37 and ShA9 lantibiotics; type: cell-based, Staphylococcus hominis; conditions: sub-antimicrobial doses of LL-37 (4 or 8 μM) plus conditioned medium from ShA9-WT, 90% RPMI/10% TSB, 30°C, 24 h; Figure 5A
Experimental: ShA9 or S. epidermidis A11 strains, lantibiotic producing CoNS, were cultured in TSB at 37°C with shake overnight. Bacteria were removed by centrifugation, followed by sterile filtration with 0.22μm membrane. Lantibiotics from each strain was precipitated by adding ammonium sulfate into the sterile conditioned media at 70% saturation. The ammonium sulfate precipitation of conditioned media were dissolved in 90% RPMI1640 supplemented by 10% TSB. ShA9-DLanti mutant or S. hominis C6 strain were cultured in TSB at 37°C overnight and washed with PBS. These strain was incubated with conditioned media precipitation (0–100%) along with 0, 4, 8mM of LL-37 in 90% RPMI/10% TSB at 30°C for 24 h. Concentration of conditioned media precipitation added was calculated based on the original volume of sterile conditioned media. Bacterial survival was evaluated by measuring OD600 or counting CFUs.

S. hominis C6 strain = experiment: Synergistic antimicrobial assay between LL-37 and Pep-5; type: cell-based, Staphylococcus hominis; conditions: strain lacking antimicrobial activity; 90% RPMI/10% TSB, 30°C, 24 h; Figure S9
Experimental: ShA9 or S. epidermidis A11 strains, lantibiotic producing CoNS, were cultured in TSB at 37°C with shake overnight. Bacteria were removed by centrifugation, followed by sterile filtration with 0.22μm membrane. Lantibiotics from each strain was precipitated by adding ammonium sulfate into the sterile conditioned media at 70% saturation. The ammonium sulfate precipitation of conditioned media were dissolved in 90% RPMI1640 supplemented by 10% TSB. ShA9-DLanti mutant or S. hominis C6 strain were cultured in TSB at 37°C overnight and washed with PBS. These strain was incubated with conditioned media precipitation (0–100%) along with […] of LL-37 in 90% RPMI/10% TSB at 30°C for 24 h. Concentration of conditioned media precipitation added was calculated based on the original volume of sterile conditioned media. Bacterial survival was evaluated by measuring OD600 or counting CFUs.

ShA9-WT = experiment: Transmission electron microscopy of ShA9-WT; type: cell-based, Staphylococcus hominis; conditions: LL-37 (2 μM), 30°C, 30 min; Figure 5B
ShA9-ΔLanti [5] = experiment: Transmission electron microscopy of ShA9-ΔLanti; type: cell-based, Staphylococcus hominis; conditions: 30°C, 30 min, Figure 5C
Experimental: To observe the effect of synergistic antimicrobial action between host AMP and lantibiotic on ShA9, ShA9-DLanti mutant were incubated in 90% RPMI media/10% TSB containing LL-37 ([…]), ammonium sulfate precipitation fraction of conditioned media from ShA9-WT (25% calculated from the original volume of media), or combination at 30°C for 30 min. Bacterial cells were washed with PBS twice and immediately fixed by re-suspending in modified Karnovsky’s fixative for 4 h, followed by 1% osmium tetroxide in 0.1 M cacodylate buffer for 1 h on ice. The cells were stained with 2% uranyl acetate for 1 h on ice, dehydrated in a graded series of ethanol (50–100%), washed with acetone, and then embedded with Durcupan. Sections (60 nm) were post-stained with 2% uranyl acetate for 5 min and Sato’s lead stain for 1 min. Grids were viewed using a JEOL JEM-1400Plus (JEOL, Peabody, MA) transmission electron microscope and photographed using a Gatan OneView 4 K digital camera (Gatan, Pleasanton, CA).

## LL-37
ShA9-WT and ShA9-ΔLanti
  Sensitivity of ShA9-WT to the AMP compared with ShA9-ΔLanti (growth inhibition): more sensitive
[1]
  Survival of CoNS strains with antibiotic activity on pigskin: inhibited survival
[2]
  Survival of CoNS strains without antibiotic activity on pigskin: did not inhibit
[3]
  Relative proportion of CoNS with antimicrobial activity in mixed bacterial samples: decreased
ShA9-ΔLanti [4]
  Growth of ShA9-ΔLanti with the combination of LL-37 and ShA9 CM containing lantibiotics: synergistically inhibited growth
S. hominis C6 strain
  Antimicrobial interaction of LL-37 combined with Pep-5 on S. hominis C6: synergy
ShA9-WT
  Electron microscopy findings in ShA9-WT after exposure: disruption of cytoplasmic membrane integrity and development of a mesosome-like structure within the cytosol
ShA9-ΔLanti [5]; LL-37 or ShA9-CM alone
  Electron microscopy findings in ShA9-ΔLanti after exposure to the single agent alone: did not show these changes
ShA9-ΔLanti [5]; combination
  Electron microscopy findings in ShA9-ΔLanti after the combination of lantibiotic-containing CM and LL-37: promote membrane damage
